For assay [1], the target named is T1, human orexin 2 receptor (Homo sapiens, UniProt O43614).
T1 construct: expressed in transfected cells
T1 sequence (O43614 1-444): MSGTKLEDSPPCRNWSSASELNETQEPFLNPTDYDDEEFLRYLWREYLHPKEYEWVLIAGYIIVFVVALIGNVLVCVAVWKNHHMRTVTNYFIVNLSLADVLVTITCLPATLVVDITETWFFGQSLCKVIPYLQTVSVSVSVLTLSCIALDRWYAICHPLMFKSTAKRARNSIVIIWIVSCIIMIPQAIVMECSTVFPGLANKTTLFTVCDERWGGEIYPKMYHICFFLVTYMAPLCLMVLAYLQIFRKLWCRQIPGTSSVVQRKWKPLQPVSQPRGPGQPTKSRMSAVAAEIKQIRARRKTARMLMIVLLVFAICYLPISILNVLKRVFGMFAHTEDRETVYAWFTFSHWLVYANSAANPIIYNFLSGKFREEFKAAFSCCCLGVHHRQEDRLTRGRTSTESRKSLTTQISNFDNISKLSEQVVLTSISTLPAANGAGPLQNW
Description: Radioligand binding assay ([3H]-SB649868 competition), human orexin 2 receptor. The conditions noted are these: radioligand [3H]-SB649868; read-out: Binding hOx2R Kd. Summed up: (§1)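 Membranes from CHO or HEK cells expressing the human receptor were incubated 1 h at room temperature with about 1 nM [3H]-SB649868 and test compound in HEPES pH 7.5 buffer with BSA, MgCl2, CaCl2 and tween. Non-specific binding defined with 10 μM almorexant; filtration read-out, values reported as Kd.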

Assay [2] has as its target T1, human orexin 2 receptor. Description: Calcium accumulation in cells (FLIPR), antagonism of orexin A, human orexin 2 receptor. It counts as cell-based. As to conditions: calcium accumulation, antagonism of orexin A, Cheng-Prusoff corrected; read-out: FLIPR hOx2R Ki.
Assay [3] concerns the target T2, human orexin 1 receptor (Homo sapiens, UniProt O43613).
T2 construct: expressed in transfected cells
T2 sequence (O43613 1-425): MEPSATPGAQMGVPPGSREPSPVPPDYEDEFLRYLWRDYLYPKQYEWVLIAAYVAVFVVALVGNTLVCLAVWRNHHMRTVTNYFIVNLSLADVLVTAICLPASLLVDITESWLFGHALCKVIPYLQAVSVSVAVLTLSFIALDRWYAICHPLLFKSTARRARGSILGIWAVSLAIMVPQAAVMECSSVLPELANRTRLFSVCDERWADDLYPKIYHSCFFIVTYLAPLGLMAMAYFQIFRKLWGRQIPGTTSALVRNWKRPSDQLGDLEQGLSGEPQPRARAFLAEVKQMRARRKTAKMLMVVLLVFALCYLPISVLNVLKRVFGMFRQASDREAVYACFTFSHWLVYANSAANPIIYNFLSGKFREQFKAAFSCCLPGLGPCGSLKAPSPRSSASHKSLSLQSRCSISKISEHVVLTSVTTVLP
The experiment in a line: Calcium accumulation in cells (FLIPR), antagonism of orexin A, human orexin 1 receptor. As to conditions: for Ki: calcium accumulation, antagonism of orexin A, Cheng-Prusoff corrected, read-out: FLIPR hOx1R Ki; for inhibition at 10 µM: measured at a concentration of 10 μM of compound, read-out: FLIPR hOx1R % inhibition. The format is cell-based.

The target in assay [4] is T2, human orexin 1 receptor. Description: Radioligand binding assay ([3H]-SB649868 competition), human orexin 1 receptor. As to conditions: radioligand [3H]-SB649868; read-out: Binding hOx1R Kd. Summed up:
as §1

Molecules are shown by their SMILES.

What is called Kd is the equilibrium constant for the complex coming apart. What is called Ki is a measure of affinity in units of concentration, obtained from inhibition or displacement. As a reminder, the inhibition is the share of the control response that was lost under treatment.

For the compound `COc1cc(C)nc(N2CCC3(CC2)NCCN(Cc2c[nH]c4ccccc24)C3=O)n1` [Example 1.8, 4-((1H-Indol-3-yl)methyl)-9-(4-methoxy-6-methylpyrimidin-2-yl)-1,4,9-triazaspiro[5.5] undecan-5-one], the Kd at human orexin 2 receptor [1] was determined as 19 nM; at human orexin 1 receptor [4], 679 nM. Moreover, the results for the Ki on human orexin 2 receptor [2] and on human orexin 1 receptor [3] were 8 nM and 906 nM, respectively.
In the case of `O=C1OCC2(CCN(c3cnc4ccccc4n3)CC2)N1Cc1cccc2[nH]ccc12` [Example 8.22, 1-((1H-Indol-4-yl)methyl)-8-(quinoxalin-2-yl)-3-oxa-1,8-diazaspiro[4.5]decan-2-one], the results for the Kd on human orexin 2 receptor [1] and on human orexin 1 receptor [4] were 290 nM and 986 nM, respectively. Besides, the values for the inhibition constant Ki on human orexin 2 receptor [2] and on human orexin 1 receptor [3] were 38 nM and 645 nM, respectively.
On the same counts, the results for `COc1cc(C)nc(N2CC[C@]3(CCCN(Cc4c[nH]c5ccccc45)C3=O)C2)n1` (single isomer, unassigned) [Example 7.9] are 12 nM, 12 nM, 1.9 nM and 10 nM.
On the same counts, the results for `COc1ccc2[nH]cc(CN3CCNC4(CCN(c5nc(C)cc(C)n5)CC4)C3=O)c2c1` [Example 1.34, 9-(4,6-Dimethyl-pyrimidin-2-yl)-4-((5-methoxy-1H-indol-3-yl)methyl)-1,4,9-triazaspiro[5.5] undecan-5-one] are 4 nM, 234 nM, 1 nM and 494 nM.
In the case of `Cc1ccc(C)c(CN2C(=O)COCC23CCN(c2cnc4ccccc4n2)CC3)c1` [Example 8.7, 1-(2,5-Dimethylbenzyl)-9-(quinoxalin-2-yl)-4-oxa-1,9-diazaspiro[5.5]undecan-2-one], the Kd at human orexin 2 receptor [1] stood at 102 nM; on human orexin 1 receptor [4] it was 431 nM. Moreover, the values for the Ki at human orexin 2 receptor [2] and at human orexin 1 receptor [3] were 24 nM and 274 nM, respectively.
`COc1cc(C)nc(N2CCC3(CCCN(Cc4c[nH]c5ccccc45)C3=O)C2)n1` (stereo not shown) [Example 7.1, 7-((1H-Indol-3-yl)methyl)-2-(4-methoxy-6-methylpyrimidin-2-yl)-2,7-diazaspiro[4.5]decan-6-one]: the Kd on human orexin 2 receptor [1] was 13 nM; on human orexin 1 receptor [4] it was 14 nM. The Ki was 10 nM at human orexin 2 receptor [2] and 31 nM on human orexin 1 receptor [3].
For `Cc1cc(C)nc(N2CCC3(CC2)NCCN(Cc2nn(C)cc2-c2cccc(N4CCOCC4)c2)C3=O)n1` [Example 1.73, 9-(4,6-dimethyl-pyrimidin-2-yl)-4-((1-methyl-4-(3-morpholinophenyl)-1H-pyrazol-3-yl)methyl)-1,4,9-triazaspiro[5.5] undecan-5-one] the same measures were 163 nM, 1380 nM, 20 nM and 862 nM.
On to `Cc1cc(C)nc(N2CCC3(CC2)NCCN(Cc2nn(C)nc2-c2ccc4c(c2)OCCO4)C3=O)n1` [Example 1.80, 4-((5-(2,3-dihydro-benzo[b][1,4]dioxin-6-yl)-2-methyl-2H-1,2,3-triazol-4-yl)methyl)-9-(4,6-dimethylpyrimidin-2-yl)-1,4,9-triazaspiro[5.5] undecan-5-one], for which the Kd on human orexin 2 receptor [1] was determined as 27 nM; at human orexin 1 receptor [4], 860 nM. The Ki came out at 4.3 nM at human orexin 2 receptor [2] and 501 nM on human orexin 1 receptor [3].
As for `Cc1cc(C)nc(N2CCC3(CC2)OCCN(Cc2ccccc2-c2nc(C)no2)C3=O)n1` [Example 2.10, 9-(4,6-Dimethylpyrimidin-2-yl)-4-(2-(3-methyl-1,2,4-oxadiazol-5-yl)benzyl)-1-oxa-4,9-diazaspiro[5.5]undecan-5-one], the Kd on human orexin 2 receptor [1] worked out at 144 nM; on human orexin 1 receptor [4], 4610 nM. The Ki on human orexin 2 receptor [2] was found to be 72 nM. For the same compound, the inhibition at 10 µM on human orexin 1 receptor [3] was found to be 35%.
On the same counts, the results for `COCc1cccc(-c2oc(C)nc2CN2CCNC3(CCN(c4nc(C)cc(C)n4)CC3)C2=O)c1` [Example 1.30, 9-(4,6-Dimethyl-pyrimidin-2-yl)-4-((5-(3-(methoxymethyl)phenyl)-2-methyl-oxazol-4-yl)methyl)-1,4,9-triazaspiro[5.5] undecan-5-one] are 114 nM, 2140 nM, 29 nM and 51%.
With `COc1cc(-c2nn(C)nc2CN2CCNC3(CCN(c4nc(C)cc(C)n4)CC3)C2=O)ccn1` [Example 1.74, 9-(4,6-dimethyl-pyrimidin-2-yl)-4-((5-(2-methoxy-pyridin-4-yl)-2-methyl-2H-1,2,3-triazol-4-yl)methyl)-1,4,9-triazaspiro[5.5] undecan-5-one], the results for the Kd on human orexin 2 receptor [1] and on human orexin 1 receptor [4] were 127 nM and 2500 nM, respectively. Besides, the figures for the Ki at human orexin 2 receptor [2] and at human orexin 1 receptor [3] were 48 nM and 4270 nM, respectively.
On the same counts, the results for `Cc1cc(C)nc(N2CCC3(CC2)NCCN(Cc2nn(C)cc2-c2cccc(C(F)(F)F)c2)C3=O)n1` [Example 1.41, 9-(4,6-Dimethyl-pyrimidin-2-yl)-4-((1-methyl-4-(3-(trifluoromethyl)phenyl)-1H-pyrazol-3-yl)methyl)-1,4,9-triazaspiro[5.5] undecan-5-one] are 182 nM, 3170 nM, 16 nM and 1580 nM.
For `Cc1cc(C)nc(N2CCC3(CC2)NCCN(Cc2nn(C)cc2-c2cccc(OC(C)C)c2)C3=O)n1` [Example 1.47, 9-(4,6-Dimethyl-pyrimidin-2-yl)-4-((4-(3-iso-propoxyphenyl)-1-methyl-1H-pyrazol-3-yl)methyl)-1,4,9-triazaspiro[5.5] undecan-5-one] the same measures were 7 nM, 187 nM, 1 nM and 135 nM.
With `COc1ccc2[nH]nc(CN3CCNC4(CCN(c5nc(C)cc(C)n5)CC4)C3=O)c2c1` [Example 1.56, 9-(4,6-Dimethyl-pyrimidin-2-yl)-4-((5-methoxy-1H-indazol-3-yl)methyl)-1,4,9-triazaspiro[5.5] undecan-5-one], the Kd on human orexin 2 receptor [1] amounted to 11 nM; on human orexin 1 receptor [4], 492 nM. The Ki turned out to be 2.7 nM on human orexin 2 receptor [2] and 594 nM on human orexin 1 receptor [3].
For `COc1cccc(-c2oc(C)nc2CN2CCNC3(CCN(c4nc(C)cc(C)n4)CC3)C2=O)c1` [Example 1.14, 9-(4,6-Dimethylpyrimidin-2-yl)-4-((5-(3-methoxyphenyl)-2-methyloxazol-4-yl)methyl)-1,4,9-triazaspiro[5.5] undecan-5-one] the same measures were 22 nM, 445 nM, 2 nM and 298 nM.
Turning to `COc1cccc(-c2ocnc2CN2CCNC3(CCN(c4nccc(OC)n4)CC3)C2=O)c1` [Example 1.12, 4-((5-(3-Methoxyphenyl)oxazol-4-yl)methyl)-9-(4-methoxy-pyrimidin-2-yl)-1,4,9-triazaspiro[5.5] undecan-5-one], the Kd at human orexin 2 receptor [1] came out at 230 nM; on human orexin 1 receptor [4] it was 686 nM. Further, the results for the Ki on human orexin 2 receptor [2] and at human orexin 1 receptor [3] were 65 nM and 621 nM, respectively.
Turning to `COc1cccc(-c2n[nH]nc2CN2CCNC3(CCN(c4nc(C)cc(C)n4)CC3)C2=O)c1` [Example 1.39, 9-(4,6-Dimethyl-pyrimidin-2-yl)-4-((5-(3-methoxy-phenyl)-2H-1,2,3-triazol-4-yl)methyl)-1,4,9-triazaspiro[5.5] undecan-5-one], the equilibrium dissociation constant (Kd) on human orexin 2 receptor [1] came to 13 nM; at human orexin 1 receptor [4], 231 nM. In addition, the inhibition constant (Ki) on human orexin 2 receptor [2] worked out at 2 nM; on human orexin 1 receptor [3], 304 nM.
Regarding `COc1cc(C)nc(N2CCC3(CCCN(Cc4n[nH]c5ccccc45)C3=O)C2)n1` (stereo not shown) [Example 7.12, 7-((1H-indazol-3-yl)methyl)-2-(4-methoxy-6-methylpyrimidin-2-yl)-2,7-diazaspiro[4.5]decan-6-one], the Kd on human orexin 2 receptor [1] stood at 138 nM; on human orexin 1 receptor [4], 173 nM. For the same compound, the Ki on human orexin 2 receptor [2] turned out to be 48 nM; on human orexin 1 receptor [3], 309 nM.
On the same counts, the results for `COc1ccc2[nH]cc(CN3CCOC4(CCN(c5nc(C)cc(C)n5)CC4)C3=O)c2c1` [Example 2.7, 9-(4,6-Dimethylpyrimidin-2-yl)-4-((5-methoxy-1H-indol-3-yl)methyl)-1-oxa-4,9-diazaspiro[5.5]undecan-5-one] are 6 nM, 213 nM, 1 nM and 258 nM.

(Values after patent publication US20120165331A1, “Di/tri-aza-spiro-C9-C11alkanes” (priority 2010, published 2012).)
